Measured values taken from patent US12077503B2, “Substituted cyclic amides and their use as herbicides” (FMC CORPORATION, priority 2015, dated 2024).

Tests used:
Type in all cases: in vivo
[1] = test system: Galium (catchweed bedstraw, Galium aparine); experiment: Test A postemergence; details: for Galium plant response rating: 125 g ai/ha, postemergence, visual injury rating on 0 to 100 scale (0 no effect, 100 complete control), approx. 10 d; for Plant response rating, Galium: Postemergence, 500 g ai/ha, 0 to 100 scale where 0 is no effect and 100 is complete control
How it was run: (§1)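 Greenhouse, ~10 d after spray; visual injury vs untreated controls, 0 = no effect, 100 = complete control. Preemergence: directed soil spray over planted seeds. Postemergence: plants 2–10 cm, 1–2 leaf stage. Loam/sand blend. Compound in non-phytotoxic solvent with surfactant.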

[2] = test system: pigweed (Amaranthus retroflexus); experiment: Test A postemergence; details: for Pigweed plant response rating: 125 g ai/ha, postemergence, visual injury rating on 0 to 100 scale (0 no effect, 100 complete control), approx. 10 d; for Plant response rating, Pigweed: Postemergence, 500 g ai/ha, 0 to 100 scale where 0 is no effect and 100 is complete control
How it was run: as §1

Kochia (Kochia scoparia) [3] = experiment: Test A postemergence; details: for Kochia plant response rating: 125 g ai/ha, postemergence, visual injury rating on 0 to 100 scale (0 no effect, 100 complete control), approx. 10 d; for Plant response rating, Kochia: Postemergence, 500 g ai/ha, 0 to 100 scale where 0 is no effect and 100 is complete control
How it was run: as §1

corn (Zea mays) = experiment: Test A postemergence; details: for Corn plant response rating: 125 g ai/ha, postemergence, visual injury rating on 0 to 100 scale (0 no effect, 100 complete control), approx. 10 d; for Plant response rating, Corn: Postemergence, 500 g ai/ha, 0 to 100 scale where 0 is no effect and 100 is complete control
How it was run: as §1

[4] = test system: blackgrass (Alopecurus myosuroides); experiment: Test A postemergence; details: for Blackgrass plant response rating: 125 g ai/ha, postemergence, visual injury rating on 0 to 100 scale (0 no effect, 100 complete control), approx. 10 d; for Plant response rating, Blackgrass: Postemergence, 500 g ai/ha, 0 to 100 scale where 0 is no effect and 100 is complete control
How it was run: as §1

[5] = test system: wheat (Triticum aestivum); experiment: Test A postemergence; details: for Wheat plant response rating: 125 g ai/ha, postemergence, visual injury rating on 0 to 100 scale (0 no effect, 100 complete control), approx. 10 d; for Plant response rating, Wheat: Postemergence, 500 g ai/ha, 0 to 100 scale where 0 is no effect and 100 is complete control
How it was run: as §1

[6] = test system: barnyardgrass (Echinochloa crus-galli); experiment: Test A postemergence; details: for Barnyardgrass plant response rating: 125 g ai/ha, postemergence, visual injury rating on 0 to 100 scale (0 no effect, 100 complete control), approx. 10 d; for Plant response rating, Barnyardgrass: Postemergence, 500 g ai/ha, 0 to 100 scale where 0 is no effect and 100 is complete control
How it was run: as §1

[7] = test system: ragweed (common ragweed, Ambrosia elatior); experiment: Test A postemergence; details: for Ragweed plant response rating: 125 g ai/ha, postemergence, visual injury rating on 0 to 100 scale (0 no effect, 100 complete control), approx. 10 d; for Plant response rating, Ragweed: Postemergence, 500 g ai/ha, 0 to 100 scale where 0 is no effect and 100 is complete control
How it was run: as §1

[8] = test system: ryegrass, Italian (Italian ryegrass, Lolium multiflorum); experiment: Test A postemergence; details: for Ryegrass, Italian plant response rating: 125 g ai/ha, postemergence, visual injury rating on 0 to 100 scale (0 no effect, 100 complete control), approx. 10 d; for Plant response rating, Ryegrass, Italian: Postemergence, 500 g ai/ha, 0 to 100 scale where 0 is no effect and 100 is complete control
How it was run: as §1

[9] = test system: giant foxtail (Setaria faberii); experiment: Test A postemergence; details: for Foxtail, Giant plant response rating: 125 g ai/ha, postemergence, visual injury rating on 0 to 100 scale (0 no effect, 100 complete control), approx. 10 d; for Plant response rating, Foxtail, Giant: Postemergence, 500 g ai/ha, 0 to 100 scale where 0 is no effect and 100 is complete control
How it was run: as §1

rice (Oryra sativa) = experiment: Test B flooded paddy test; details: Flood, 250 g ai/ha; 0 to 100 scale where 0 is no effect and 100 is complete control; 13 to 15 d
How it was run: (§2)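 Flooding to 3 cm over soil accompanied treatment, which consisted of adding compound to the standing water around 2-leaf plants; depth was then maintained. Visual assessment versus controls followed at 13 to 15 d (scale 0–100, 0 meaning no effect).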

[10] = test system: sedge, umbrella (small-flower umbrella sedge, Cyperus difformis); experiment: Test B flooded paddy test; details: Flood, 250 g ai/ha; 0 to 100 scale where 0 is no effect and 100 is complete control; 13 to 15 d
How it was run: as §2

[11] = test system: barnyardgrass (Echinochloa crus-galli); experiment: Test B flooded paddy test; details: Flood, 250 g ai/ha; 0 to 100 scale where 0 is no effect and 100 is complete control; 13 to 15 d
How it was run: as §2

[12] = test system: ducksalad (Heteranthera limosa); experiment: Test B flooded paddy test; details: Flood, 250 g ai/ha; 0 to 100 scale where 0 is no effect and 100 is complete control; 13 to 15 d
How it was run: as §2

[13] = test system: pigweed (Amaranthus retroflexus); experiment: Test A preemergence; details: Preemergence; for Plant response rating, Pigweed: 125 g ai/ha, visual injury after approximately 10 d, 0 to 100 scale where 0 is no effect and 100 is complete control; for Pigweed plant response rating (0 to 100 scale, 0 is no effect, 100 is complete control): 500 g ai/ha, visual injury approx. 10 d
Kochia (Kochia scoparia) [14] = experiment: Test A preemergence; details: Preemergence; for Plant response rating, Kochia: 125 g ai/ha, visual injury after approximately 10 d, 0 to 100 scale where 0 is no effect and 100 is complete control; for Kochia plant response rating (0 to 100 scale, 0 is no effect, 100 is complete control): 500 g ai/ha, visual injury approx. 10 d
How it was run: as §1

[15] = test system: barnyardgrass (Echinochloa crus-galli); experiment: Test A preemergence; details: Preemergence; for Plant response rating, Barnyardgrass: 125 g ai/ha, visual injury after approximately 10 d, 0 to 100 scale where 0 is no effect and 100 is complete control; for Barnyardgrass plant response rating (0 to 100 scale, 0 is no effect, 100 is complete control): 500 g ai/ha, visual injury approx. 10 d
How it was run: as §1

[16] = test system: ragweed (common ragweed, Ambrosia elatior); experiment: Test A preemergence; details: Preemergence; for Plant response rating, Ragweed: 125 g ai/ha, visual injury after approximately 10 d, 0 to 100 scale where 0 is no effect and 100 is complete control; for Ragweed plant response rating (0 to 100 scale, 0 is no effect, 100 is complete control): 500 g ai/ha, visual injury approx. 10 d
How it was run: as §1

[17] = test system: ryegrass, Italian (Italian ryegrass, Lolium multiflorum); experiment: Test A preemergence; details: Preemergence; for Plant response rating, Ryegrass, Italian: 125 g ai/ha, visual injury after approximately 10 d, 0 to 100 scale where 0 is no effect and 100 is complete control; for Ryegrass, Italian plant response rating (0 to 100 scale, 0 is no effect, 100 is complete control): 500 g ai/ha, visual injury approx. 10 d
How it was run: as §1

[18] = test system: giant foxtail (Setaria faberii); experiment: Test A preemergence; details: Preemergence; for Plant response rating, Foxtail, Giant: 125 g ai/ha, visual injury after approximately 10 d, 0 to 100 scale where 0 is no effect and 100 is complete control; for Foxtail, Giant plant response rating (0 to 100 scale, 0 is no effect, 100 is complete control): 500 g ai/ha, visual injury approx. 10 d
How it was run: as §1

| SMILES | Galium plant response rating [1] | Plant response rating, Galium [1] | Pigweed plant response rating [2] | Plant response rating, Pigweed [2] | Kochia plant response rating (Kochia (Kochia scoparia) [3]) | Plant response rating, Kochia (Kochia (Kochia scoparia) [3]) | Corn plant response rating (corn (Zea mays)) | Plant response rating, Corn (corn (Zea mays)) | Blackgrass plant response rating [4] | Plant response rating, Blackgrass [4] | Wheat plant response rating [5] | Plant response rating, Wheat [5] | Barnyardgrass plant response rating [6] | Plant response rating, Barnyardgrass [6] | Ragweed plant response rating [7] | Plant response rating, Ragweed [7] | Ryegrass, Italian plant response rating [8] | Plant response rating, Ryegrass, Italian [8] | Foxtail, Giant plant response rating [9] | Plant response rating, Foxtail, Giant [9] | other results |
| --- | --- | --- | --- | --- | --- | --- | --- | --- | --- | --- | --- | --- | --- | --- | --- | --- | --- | --- | --- | --- | --- |
| O=C1NCC(c2cccc(F)c2F)C1C(=O)Nc1ccc(F)cc1F (stereo not drawn) [Compound 495] | 0 | 0 | 0 | 0 | 30 | 30 | 0 | 30 | 0 | 20 | 0 | 20 | 20 | 80 | 0 | 0 | 0 | 20 | 20 | 70 | Plant response rating, Rice (rice (Oryra sativa)): 0; Plant response rating, Sedge, Umbrella [10]: 0; Plant response rating, Barnyardgrass [11]: 35; Plant response rating, Ducksalad [12]: 75; Plant response rating, Pigweed [13]: 0; Pigweed plant response rating (0 to 100 scale, 0 is no effect, 100 is complete control) [13]: 20; Plant response rating, Kochia (Kochia (Kochia scoparia) [14]): 20; Kochia plant response rating (0 to 100 scale, 0 is no effect, 100 is complete control) (Kochia (Kochia scoparia) [14]): 30; Plant response rating, Barnyardgrass [15]: 30; Barnyardgrass plant response rating (0 to 100 scale, 0 is no effect, 100 is complete control) [15]: 90; Plant response rating, Ragweed [16]: 0; Ragweed plant response rating (0 to 100 scale, 0 is no effect, 100 is complete control) [16]: 0; Plant response rating, Ryegrass, Italian [17]: 0; Ryegrass, Italian plant response rating (0 to 100 scale, 0 is no effect, 100 is complete control) [17]: 20; Plant response rating, Foxtail, Giant [18]: 90; Foxtail, Giant plant response rating (0 to 100 scale, 0 is no effect, 100 is complete control) [18]: 90 |
| COCc1cccc(C2CNC(=O)C2C(=O)Nc2ccccc2F)c1 (stereo not drawn) [Compound 496] | 0 | 30 | 0 | 0 | 0 | 0 | 0 | 0 | 0 | 0 | 0 | 0 | 60 | 80 | 0 | 0 | 0 | 0 | 20 | 50 | Plant response rating, Rice (rice (Oryra sativa)): 0; Plant response rating, Sedge, Umbrella [10]: 0; Plant response rating, Barnyardgrass [11]: 60; Plant response rating, Ducksalad [12]: 85; Plant response rating, Pigweed [13]: 0; Pigweed plant response rating (0 to 100 scale, 0 is no effect, 100 is complete control) [13]: 0; Plant response rating, Kochia (Kochia (Kochia scoparia) [14]): 0; Kochia plant response rating (0 to 100 scale, 0 is no effect, 100 is complete control) (Kochia (Kochia scoparia) [14]): 40; Plant response rating, Barnyardgrass [15]: 60; Barnyardgrass plant response rating (0 to 100 scale, 0 is no effect, 100 is complete control) [15]: 90; Plant response rating, Ragweed [16]: 0; Ragweed plant response rating (0 to 100 scale, 0 is no effect, 100 is complete control) [16]: 0; Plant response rating, Ryegrass, Italian [17]: 0; Ryegrass, Italian plant response rating (0 to 100 scale, 0 is no effect, 100 is complete control) [17]: 0; Plant response rating, Foxtail, Giant [18]: 30; Foxtail, Giant plant response rating (0 to 100 scale, 0 is no effect, 100 is complete control) [18]: 90 |
| COCc1cccc(C2CNC(=O)C2C(=O)Nc2cccc(F)c2F)c1 (stereo not drawn) [Compound 497] | 0 | 50 | 0 | 0 | 30 | 30 | 0 | 40 | 30 | 30 | 0 | 40 | 60 | 80 | 0 | 0 | 0 | 20 | 20 | 50 | Plant response rating, Rice (rice (Oryra sativa)): 20; Plant response rating, Sedge, Umbrella [10]: 0; Plant response rating, Barnyardgrass [11]: 70; Plant response rating, Ducksalad [12]: 90; Plant response rating, Pigweed [13]: 30; Pigweed plant response rating (0 to 100 scale, 0 is no effect, 100 is complete control) [13]: 20; Plant response rating, Kochia (Kochia (Kochia scoparia) [14]): 20; Kochia plant response rating (0 to 100 scale, 0 is no effect, 100 is complete control) (Kochia (Kochia scoparia) [14]): 50; Plant response rating, Barnyardgrass [15]: 90; Barnyardgrass plant response rating (0 to 100 scale, 0 is no effect, 100 is complete control) [15]: 90; Plant response rating, Ragweed [16]: 0; Ragweed plant response rating (0 to 100 scale, 0 is no effect, 100 is complete control) [16]: 0; Plant response rating, Ryegrass, Italian [17]: 0; Ryegrass, Italian plant response rating (0 to 100 scale, 0 is no effect, 100 is complete control) [17]: 30; Plant response rating, Foxtail, Giant [18]: 90; Foxtail, Giant plant response rating (0 to 100 scale, 0 is no effect, 100 is complete control) [18]: 90 |
